# From PMC6095626, “Screening of the Pathogen Box for inhibitors with dual efficacy against Giardia lamblia and Cryptosporidium parvum” (PLoS Neglected Tropical Diseases, 2018)
# Legend:
# [1] = system: G. lamblia trophozoites (luciferase expressing, WBC6); assay: microbe, parasite or virus in culture; type: cell-based, Giardia lamblia; settings: initial Pathogen Box screen, single concentration 16 µM, inhibition compared to DMSO wells
# Procedure, shortened: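 Luciferase-expressing WBC6 trophozoites plated at 250,000 cells/mL, compounds added 1:1, incubated anaerobically (GasPak bags) at 37 °C for 24 h; viability read by bioluminescence, with duplicate plates counted on a MOXI Z cell counter. Metronidazole control serially diluted 1:2 from 40 μM.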
# [2] = system: C. parvum (UGA1 Nluc expressing strain in HCT-8 cells); assay: microbe, parasite or virus in culture; type: cell-based, Cryptosporidium parvum; settings: initial Pathogen Box screen, single concentration 10 µM, inhibition compared to DMSO wells
# Procedure, shortened: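 HCT-8 monolayers grown 48 h to 90–100% confluence, treated with compound at 10 μM or serial dilutions, then infected with bleach-treated UGA1 Nluc C. parvum oocysts.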
Compound,Giardia (16 uM) Mean % inhibition [1],Crypto (10 uM) Mean % inhibition [2]
Cc1cc(C(=O)Nc2cnn(Cc3ccc(Cl)cc3Cl)c2)no1 [MMV009054],X* (Mean or standard deviation are negative but not significantly different from the control to be a growth promoter),59%
CN1CCC(NCc2cccc(-c3ccc(S(=O)(=O)NCc4ccccc4)cc3)c2)CC1 [MMV022029],89%,X* (Mean or standard deviation are negative but not significantly different from the control to be a growth promoter)
FC(F)(F)c1cnc(Sc2nnc(-c3ccncc3)o2)c(Cl)c1 [MMV011765],53%,89%
COc1cc(C2=NCCN2)ccc1-n1cc(-c2cccc(C3=NCCN3)c2)nn1 [MMV688474],18%,X* (Mean or standard deviation are negative but not significantly different from the control to be a growth promoter)
O=C(Nc1ccc(N2CCNCC2)nc1)c1oc(-c2ccccc2)nc1C(F)(F)F [MMV024937],7%,X* (Mean or standard deviation are negative but not significantly different from the control to be a growth promoter)
COc1ccc(CN2CCOc3ccc(C(C)(O)CN(C)C)cc3C2)cc1C (centres unmarked) [MMV008439],35%,68%
Clc1ccc(-n2cc(COc3ccnc4ccccc34)nn2)cc1 [MMV675994],15%,94%
COc1ccc(-c2cnc3cnc(-c4cccc(OC(C)C)c4)cn23)cc1 [MMV688270],10%,X* (Mean or standard deviation are negative but not significantly different from the control to be a growth promoter)
c1cncc(NCc2ccc(-c3cc4ccncc4cc3OC3CCNCC3)s2)c1 [MMV023969],11%,25%
O=C(NCc1nnc2n1CCCCC2)c1ccc(-c2ccc(F)cc2)o1 [MMV688796],52%,44%
CC(C)(C)c1cc(C(=O)N2CCN(c3nccnc3C#N)CC2)n(Cc2ccccc2)n1 [MMV023949],36%,55%
CCCCc1ccc(NC(=O)Nc2ccc(O[C@H]3CCCC[C@@H]3N(C)c3ccccc3)c(F)c2)cc1 [MMV676063],29%,82%
CC(C)(C)OC(=O)N1CCN(c2nccc(-c3ccc(-c4ccc(Cl)cc4)s3)n2)CC1 [MMV688416],55%,41%
COc1ccccc1OCCCCn1c(C2CC2)nc2ccccc21 [MMV676474],3.27%,X* (Mean or standard deviation are negative but not significantly different from the control to be a growth promoter)
Nc1c2c(nc3sc4c(c13)CCCC4)CCCC2 [MMV676588],26%,48%
CN1CCN(c2cc(-c3ccc(F)cc3)nc(-c3ccncc3)n2)CC1 [MMV688888],62%,84%
C[C@H](C(N)=O)N1CCCC[C@@H]1c1ccc(OCc2cccc(F)c2)cc1 [MMV676270],20%,6.67%
O=C(C1CCCCC1)N1CC(=O)N2CCc3ccccc3[C@@H]2C1 [MMV002529],16%,55%
Cc1cc(NCC(C)C)c2[nH]nc(-c3ccccc3)c2n1 [MMV021375],62%,X* (Mean or standard deviation are negative but not significantly different from the control to be a growth promoter)
Cc1c[nH]c(CCNC(=O)c2cc(-c3ccc(Cl)cc3)cs2)n1 [MMV676350],17%,X* (Mean or standard deviation are negative but not significantly different from the control to be a growth promoter)
CCC(=O)Nc1ccccc1C(=O)Nc1ccccn1 [MMV202553],35%,20%
CC(=O)Nc1ccc(NC(=O)c2cc(-c3cc(Cl)ccc3O)n[nH]2)cc1 [MMV676380],X* (Mean or standard deviation are negative but not significantly different from the control to be a growth promoter),34%
O=C(Nc1ccc(F)c(-c2nc3ncc(-c4ccccc4)cc3[nH]2)c1)N1CCCC1 [MMV688372],24%,48%
O=C(c1n[nH]c2c1CCCC2)N1CCN(Cc2ccc3c(c2)OCO3)CC1 [MMV676389],66%,X* (Mean or standard deviation are negative but not significantly different from the control to be a growth promoter)
CC(C)n1nc(-c2cc3c(Cl)cccc3[nH]2)c2c(N)ncnc21 [MMV688417],77%,85%

Compound,Giardia (16 uM) Mean % inhibition [1],Crypto (10 uM) Mean % inhibition [2]
COC(=O)C1=C(C)NC(C)=C(C(=O)OC(C)C)[C@H]1c1cccc2nonc12 [MMV001493],25%,53%
CC(C)C(NC(=O)Cc1cccc2ccccc12)C(=O)Nc1cccc(C#N)c1 (centres unmarked) [MMV020591],16%,55%
O=C(Nc1nc(-c2ccccn2)cs1)C1CC1c1ccccc1F (centres unmarked) [MMV1028806],X* (Mean or standard deviation are negative but not significantly different from the control to be a growth promoter),91%
c1ccc(Oc2ccc(-c3cc(CN4CCOCC4)[nH]n3)cc2)cc1 [MMV676161],33%,X* (Mean or standard deviation are negative but not significantly different from the control to be a growth promoter)
Cc1cc(Nc2ccncc2)n2nc(C)c(-c3ccccc3Cl)c2n1 [MMV016136],X* (Mean or standard deviation are negative but not significantly different from the control to be a growth promoter),46%
COc1cc2ncnc(NC3CCN(Cc4ccccc4)CC3)c2cc1OC [MMV006741],35%,45%
NCC(=O)N1CCn2c(nc(-c3ccccc3)c2Nc2ccc3c(c2)OCO3)C1 [MMV011691],20%,X* (Mean or standard deviation are negative but not significantly different from the control to be a growth promoter)
NC(=O)c1cc(Br)ccc1OCCOc1ccccc1 [MMV687243],66%,77%
NCC(c1cccs1)S(=O)(=O)c1ccccc1 (centres unmarked) [MMV688557],-0.156%,81%
CCCc1ccc(S(=O)(=O)Nc2ccc(CN3CCN(CC4CC4)CC3)cc2)cc1 [MMV688125],59%,50%
c1ccc2c(c1)CN(CC1CC1)CC1(CCN(Cc3c[nH]c4cnccc34)CC1)O2 [MMV023183],72%,X* (Mean or standard deviation are negative but not significantly different from the control to be a growth promoter)
COc1ccc(S(=O)(=O)Nc2ccc(CN3CCN(C(=O)c4cccc(C#N)c4)CC3)cc2)cc1 [MMV689029],54%,54%
c1ccc(-c2cc(N3CCCCC3)c3ccccc3n2)nc1 [MMV560185],X* (Mean or standard deviation are negative but not significantly different from the control to be a growth promoter),47%
N#CCN(CCCCN1CCN(c2ccc(F)cc2)CC1)C(=O)OCc1ccccc1 [MMV675997],29%,56%
Cc1ccc(-c2nc(CN(Cc3ccccn3)C(C)C)cs2)o1 [MMV1088520],52%,27%
COc1ccccc1CNC(=O)c1cc(C2CC2)nc2c1cnn2C(C)C [MMV020517],X* (Mean or standard deviation are negative but not significantly different from the control to be a growth promoter),X* (Mean or standard deviation are negative but not significantly different from the control to be a growth promoter)
COc1cccn2c(C(=O)N3CCCCC3)c(C(F)(F)F)nc12 [MMV1110498],61%,60%
COc1cc(C(F)(F)F)nc2ccc(C)c(N)c12 [MMV047015],65%,1.83%
Nc1ncnc2c1c(Cc1cccc3ccccc13)nn2CC1CCNCC1 [MMV676182],0.413%,59%
Cc1cc2ccccc2n1CC(=O)N1CC(C(=O)N2CCCCC2)Oc2ccccc21 (centres unmarked) [MMV020520],6.36%,68%
Cc1[nH]c2ccccc2c1C(c1cccs1)N1CCN(C)CC1 (centres unmarked) [MMV688768],9%,66%
Clc1cccc(C(c2ccc(CN3CCNCC3)cc2)n2ccnc2)c1 (centres unmarked) [MMV663250],14%,52%
COc1ccc(C2CC(c3cccs3)=NN2C(=O)c2ccco2)cc1OC (centres unmarked) [MMV019234],20%,X* (Mean or standard deviation are negative but not significantly different from the control to be a growth promoter)
CC(=O)N(CCN(C(=O)c1ccc(F)cc1)c1ccccc1)c1ccccc1 [MMV676064],28%,28%
